Measured values taken from US20070014739A1, “Compositions and methods for controlling biofilms and bacterial infections” (priority 2005, published 2007).

Assays:
[1] = test system: Clinical isolates of P. aeruginosa from cystic fibrosis patients; experiment: Detachment of mature biofilms on peg lids, crystal violet; type: cell-based; details: 5 ug/ml, approximately 40 hours; eighteen clinical isolates; compared to negative controls
Method: Clinical isolates of P. aeruginosa from cystic fibrosis patients were passed twice on tryptic soy agar with 5% sheep blood after retrieval from −80° C. and then grown overnight in CAMHB. After dilution of a culture to 0.5 McFarland in broth medium, 100 μl was transferred in triplicate to wells of a flat-bottom 96-well microtiter plate. Bacterial biofilms were formed by immersing the pegs of a modified polystyrene microtiter lid into this biofilm growth plate, followed by incubation at 37° C. for 20 hours with no movement.
Peg lids were rinsed three times in sterile water, placed onto flat-bottom microtiter plates containing biofilm inhibitors at 5 ug/ml in 100 μl of CAMHB per well and incubated for approximately 40 hours at 37° C.
Pegs were rinsed, placed in a 0.1% (wt/vol) crystal violet solution for 15 min, rinsed again, and dried for several hours. To solubilize adsorbed crystal violet, pegs were incubated in 95% ethanol (150 μl per well of a flat-bottom microtiter plate) for 15 min. The absorbance was read at 590 nm on a plate reader. The wells containing asiatic acid were compared to negative controls. Negative controls were prepared as stated above but without asiatic acid.

E. coli UTI89[pCOMGFP] = experiment: Bladder colonization (CFU) in infected mice, oral treatment; type: in vivo, Escherichia coli; details: C3H/HeN mice, approximately 2 days after inoculation
Method: Briefly, E. coli UTI89[pCOMGFP] was prepared after retrieval from frozen stocks by inoculating appropriately in LB medium statically for approximately 20 hours. Cells were harvested and suspended in 1 ml of PBS. Cells were diluted appropriately to achieve approximately 10^7 CFU input into C3H/HeN mice.
Mice were deprived of water for approximately two hours. All mice were anesthetized with isofluorane. Urine was dispelled from the bladders and an inoculum of approximately 10^7 CFU of E. coli were introduced into the bladders as indicated above. Treatments of sulfamethoxazole and trimethoprim (SMZ/TMP), asiatic acid, and combination of SMZ/TMP and asiatic acid was evaluated.
3 mice received asiatic acid by orally at approximately 25 milligram per kilogram twice a day beginning one day prior to infection each day during the experiment. Asiatic acid was prepared in 50% Labrasol®. 5 mice received SMZ/TMP in their drinking water at a concentration of 270 micrograms of SMZ per millilter and 54 micrograms of TMP per milliliter immediately after infection throughout the experiment. 5 mice received asiatic acid and SMZ/TMP in combination dosed according to the individual dosing groups. The experiment was performed for approximately 2 days after inoculation. […] The bladders were removed and colony forming units (CFU) were determined as previously described by Justice, S. et al.

[2] = test system: E. coli clinical strain UT189 against bladder epithelial cells; experiment: Binding to and invasion of bladder epithelial cells by E. coli; type: cell-based; details: 40 μg/ml, 60 minutes; separate experiments (n=4 to 7)
Method: The effect of test compounds on bacterial invasion of E. coli clinical strain UT189 was studied as described in Elsinghorst, et al. 1994, Methods Enzymol, 236:405-420; and Martinez et al., 2000, EMBO J., 19:2803-2812. Epithelial bladder cells were grown in plates. Asiatic acid, corosolic acid, or ursolic acid were added at concentrations of 10 μg/ml, 20 μg/ml, or 40 μg/ml to bacteria and epithelial cells for approximately 5, 15, 30, or 60 minutes with approximately 10^7 CFU of E. coli. Binding was assessed at time zero and invasion was assessed at approximately 5, 15, 30, or 60 minutes from completing the mixture of compound, bacteria, and epithelial cells. As a control ethanol was added to cells to a final concentration of 0.1%. The effect of bacterial viability and bacterial adherence during the infection period was evaluated according to the methods described in Martinez et al., 2000, EMBO J., 19:2803-2812.

S. mutans 25175 = experiment: Biofilm growth inhibition in 1 mL polycarbonate tubes; type: cell-based; details: Streptococcus mutans, 40 μg/mL
[3] = Bladder concentrations in rats (pharmacokinetic study); details: rat, in vivo, po, 50 mg/kg
Method: Pharmacokinetic studies of asiatic acid and madecassic acid in rats were performed separately. Asiatic acid and madecassic acid were evaluated at 50 mg/kg (oral). Two animals were assigned to the each group. Prior to dosing, a baseline blood sample was taken from each animal. At time zero for asiatic acid and madecassic acid, a single bolus dose in 50% Labrasol (Gattefosse) was given to each animal. Bladders were analyzed at 24 hours. Concentrations of both asiatic acid and madecassic acid in the bladder were approximately 30 μg/g at 24 hours.

E. coli UT189[pCOMGFP] = experiment: Biofilm pods (IBCs) in bladders of infected mice, intravesical compound, confocal microscopy; type: in vivo, Escherichia coli; details: vs controls
Method: The procedures in this example has been previously reported by Justice, S. et al. Differentiation and development pathways of uropathogenic Escherichia coli in urinary tract pathogenesis. PNAS, 2004, 101(5), p. 1333-1338. Briefly, E. coli UT189[pCOMGFP] was prepared after retrieval from frozen stocks by inoculating appropriately in LB medium statically for approximately 20 hours. Cells were harvested and suspended in 1 ml of PBS. Cells were diluted appropriately to achieve approximately a 10^8 CFU or 10^7 CFU input into C3H/HeN mice (2 mice per group).
Mice were deprived of water for approximately two hours. In experiment 1, all mice were anesthetized with 0.15 cc ketamine cocktail. In experiment 2, all mice were anesthetized with isofluorane. In experiment 1, urine was dispelled from the bladders and approximately 40 μg/ml of test compound or an appropriate amount of ethanol as control was introduced into the bladders via catheterization of the urethra using a tubing coated tuberculin syringe. 30 minutes was allowed to elapse. In experiment 2, bladders were not pre-incubated with test compounds. Bladders were then expelled and an inoculum of 10^8 CFU (Experiment 1) or 10^7 CFU (Experiment 2) of E. coli containing 40 μg/ml of test compound or equivalent amount of ethanol as controls were introduced into the bladders as indicated above.
In experiment 1 five hours elapsed and in experiment 2 six hours elapsed, and then mice were anesthetized and sacrificed appropriately. The bladders were removed, bisected, stretched, and fixed in 3% paraformaldehyde for 1 hour at room temperature. Bladders were then permeabilized in 0.01% Triton/PBS for 10 minutes and counter stained with TOPRO3 (Molecular Probes) for 10 minutes for visualization by confocal microscopy. Bladders were mounted on Prolong antifade (Molecular Probes).

In the case of `C[C@H]1[C@H](C)CC[C@]2(C(=O)O)CC[C@]3(C)C(=CC[C@@H]4[C@@]5(C)C[C@@H](O)[C@H](O)[C@@](C)(CO)[C@@H]5CC[C@]43C)[C@H]12` [Asiatic acid], the “average detachment of mature biofilms” value [1] is reported as “approximately 50%”, the “bladder CFU” value (E. coli UTI89[pCOMGFP]; combination of SMZ/TMP and asiatic acid) is reported as 2.3×10^4 CFU and the “bladder CFU” value (E. coli UTI89[pCOMGFP]; single treatment (asiatic acid 25 mg/kg oral twice a day; SMZ/TMP 270/54 micrograms per ml in drinking water)) is reported as 2.9×10^3 CFU. For the same compound, the “reduced invasion of E. coli into bladder epithelial cells” value [2] was 87%, the inhibition at 40 µg/mL (S. mutans 25175) was > 75% and the concentration at 24 h [3] was ~30000 ng/g. The “reduction in biofilm pods or IBCs in the bladders of mice” value (E. coli UT189[pCOMGFP]; experiment 1: C3H/HeN mice, 40 μg/ml intravesical with 30 min pre-incubation, 10^8 CFU, five hours) was 77% and the “reduction in large biofilm pods or large IBCs in the bladders of mice” value (E. coli UT189[pCOMGFP]; experiment 2: C3H/HeN mice, 40 μg/ml in inoculum, no pre-incubation, 10^7 CFU, six hours) was ~60%.
